Source: US7074605B2 (The Curators of the University of Missouri, priority 1997, dated 2006)

Molecular target: Clostridium perfringens α-N-acetylgalactosaminidase (Clostridium perfringens, UniProt I1SB20)
Format: biochemical

Clostridium perfringens α-N-acetylgalactosaminidase, sequence (I1SB20 1-629 limits assumed): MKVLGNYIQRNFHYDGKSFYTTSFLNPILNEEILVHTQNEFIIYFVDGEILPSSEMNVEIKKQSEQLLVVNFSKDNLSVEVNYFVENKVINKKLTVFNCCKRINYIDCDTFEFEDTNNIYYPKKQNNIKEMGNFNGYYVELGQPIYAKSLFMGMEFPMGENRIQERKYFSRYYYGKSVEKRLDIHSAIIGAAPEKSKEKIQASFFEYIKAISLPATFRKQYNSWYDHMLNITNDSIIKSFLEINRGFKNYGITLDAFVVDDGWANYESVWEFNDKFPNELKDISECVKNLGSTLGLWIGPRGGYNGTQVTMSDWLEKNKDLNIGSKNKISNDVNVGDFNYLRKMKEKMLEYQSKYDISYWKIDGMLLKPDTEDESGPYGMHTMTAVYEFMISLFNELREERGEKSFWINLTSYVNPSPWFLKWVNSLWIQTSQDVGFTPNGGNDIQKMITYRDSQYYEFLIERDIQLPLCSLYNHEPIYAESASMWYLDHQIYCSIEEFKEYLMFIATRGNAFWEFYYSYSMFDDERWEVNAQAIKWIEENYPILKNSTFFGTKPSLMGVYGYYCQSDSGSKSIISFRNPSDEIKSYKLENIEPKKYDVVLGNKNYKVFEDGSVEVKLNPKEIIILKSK

SMILES | Activity
CC(=O)NC1C(O)CC(Oc2ccc3c(C)cc(=O)oc3c2)(C(=O)O)OC1C(O)C(O)CO (stereo not drawn) [4MU-N-acetyl-α-neuraminic acid] | <0.001 U/ml
Cc1cc(=O)oc2cc(O[C@@H]3O[C@H](CO)[C@H](O)[C@H](O)[C@H]3O)ccc12 [4MU-α-D-galactopyranoside] | <0.001 U/ml
CC(=O)N[C@H]1[C@@H](Oc2ccc([N+](=O)[O-])cc2)O[C@H](CO)[C@H](O)[C@@H]1O [PNP-N-acetyl-α-D-galactosaminide] | 0.334 U/ml
CC(=O)N[C@H]1[C@@H](Oc2ccc([N+](=O)[O-])cc2)O[C@H](CO)[C@@H](O)[C@@H]1O [PNP-N-acetyl-α-D-glucosaminide] | <0.001 U/ml
CC(=O)N[C@H]1[C@H](Oc2ccc([N+](=O)[O-])cc2)O[C@H](CO)[C@H](O)[C@@H]1O [PNP-N-acetyl-β-D-galactosaminide] | <0.001 U/ml
CC(=O)N[C@H]1[C@H](Oc2ccc([N+](=O)[O-])cc2)O[C@H](CO)[C@@H](O)[C@@H]1O [PNP-N-acetyl-β-D-glucosaminide] | <0.001 U/ml
O=[N+]([O-])c1ccc(O[C@H]2O[C@H](CO)[C@H](O)[C@H](O)[C@H]2O)cc1 [PNP-α-D-galactopyranoside] | <0.001 U/ml
O=[N+]([O-])c1ccc(O[C@H]2O[C@H](CO)[C@@H](O)[C@H](O)[C@H]2O)cc1 [PNP-α-D-glucopyranoside] | <0.001 U/ml
O=[N+]([O-])c1ccc(O[C@H]2O[C@H](CO)[C@@H](O)[C@H](O)[C@@H]2O)cc1 [PNP-α-D-mannopyranoside] | <0.001 U/ml
O=[N+]([O-])c1ccc(O[C@@H]2OC[C@H](O)[C@H](O)[C@H]2O)cc1 [PNP-α-L-arabinopyranoside] | <0.001 U/ml
C[C@@H]1O[C@@H](Oc2ccc([N+](=O)[O-])cc2)[C@@H](O)[C@H](O)[C@@H]1O [PNP-α-L-fucopyranoside] | <0.001 U/ml
O=[N+]([O-])c1ccc(O[C@@H]2O[C@H](CO)[C@H](O)[C@H](O)[C@H]2O)cc1 [PNP-β-D-galactopyranoside] | <0.001 U/ml
O=[N+]([O-])c1ccc(O[C@@H]2O[C@H](CO)[C@@H](O)[C@H](O)[C@H]2O)cc1 [PNP-β-D-glucopyranoside] | <0.001 U/ml
C[C@@H]1O[C@H](Oc2ccc([N+](=O)[O-])cc2)[C@@H](O)[C@H](O)[C@@H]1O [PNP-β-L-fucopyranoside] | <0.001 U/ml
